Results reported in ChEMBL document CHEMBL1201862, “PubChem BioAssay data set” (2004).
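In this assay, cells in 96-well plates receive the compound at five concentrations for 48 hours. Endpoints are linearly interpolated between the surrounding concentrations. Here, GI50 denotes the concentration required for 50% inhibition of growth.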 Activity calls are given as the source filed them. Cut-off read from the data, not from the text of the source: active = GI50 up to about 1.1 µM and inactive = higher.

Tests used:
Experiment in all cases: growth of human tumour cells (NCI), 48 h
[1] = tested on: ACHN
[2] = tested on: SN12C
[3] = tested on: OVCAR-5
[4] = tested on: EKVX
[5] = tested on: HOP-62
[6] = tested on: NCI-H522
[7] = tested on: SR
[8] = tested on: NCI/ADR-RES
[9] = tested on: DU-145
[10] = tested on: HCT-15
[11] = tested on: OVCAR-4
[12] = tested on: UACC-257
[13] = tested on: HCC 2998
[14] = tested on: SK-MEL-28
[15] = tested on: SNB-19
[16] = tested on: RPMI-8226
[17] = tested on: 786-0
[18] = tested on: COLO 205
[19] = tested on: HOP-92
[20] = tested on: MOLT-4
[21] = tested on: K562
[22] = tested on: SNB-75
[23] = tested on: CCRF-CEM
[24] = tested on: CAKI-1
[25] = tested on: SW-620
[26] = tested on: MDA-MB-435
[27] = tested on: T47D
[28] = tested on: SF-295
[29] = tested on: RXF 393
[30] = tested on: UACC-62
[31] = tested on: UO-31
[32] = tested on: NCI-H460
[33] = tested on: A549
[34] = tested on: A498
[35] = tested on: SF-268
[36] = tested on: HCT-116
[37] = tested on: SF-539
[38] = tested on: MDA-N
[39] = tested on: OVCAR-3
[40] = tested on: SK-OV-3
[41] = tested on: NCI-H23
[42] = tested on: M14
[43] = tested on: BT-549
[44] = tested on: OVCAR-8
[45] = tested on: KM12
[46] = tested on: Hs-578T
[47] = tested on: TK-10
[48] = tested on: MCF7
[49] = tested on: LOX IMVI
[50] = tested on: HL-60
[51] = tested on: Malme-3M
[52] = tested on: HT-29
[53] = tested on: MDA-MB-231
[54] = tested on: SK-MEL-5
[55] = tested on: IGROV-1
[56] = tested on: NCI-H226
[57] = tested on: PC-3
[58] = tested on: U-251
[59] = tested on: SK-MEL-2

Which results are given for Cc1n[nH]c(=O)n1/N=C/c1ccc(F)cc1?
GI50 [1]: > 100 µM (inactive); GI50 [2]: > 100 µM (inactive); GI50 [3]: > 100 µM (inactive); GI50 [4]: 92.9 µM (inactive); GI50 [5]: > 100 µM (inactive); GI50 [6]: > 100 µM (inactive); GI50 [7]: > 100 µM (inactive); GI50 [8]: > 100 µM (inactive); GI50 [9]: > 100 µM (inactive); GI50 [10]: > 100 µM; GI50 [11]: > 100 µM (inactive); GI50 [12]: > 100 µM (inactive); GI50 [13]: > 100 µM (inactive); GI50 [14]: > 100 µM (inactive); GI50 [15]: > 100 µM (inactive); GI50 [16]: > 100 µM (inactive); GI50 [17]: > 100 µM (inactive); GI50 [18]: > 100 µM (inactive); GI50 [19]: > 100 µM (inactive); GI50 [20]: > 100 µM (inactive); GI50 [21]: > 100 µM (inactive); GI50 [22]: 65.2 µM (inactive); GI50 [23]: > 100 µM (inactive); GI50 [24]: > 100 µM (inactive); GI50 [25]: > 100 µM (inactive); GI50 [26]: > 100 µM (inactive); GI50 [27]: > 100 µM (inactive); GI50 [28]: > 100 µM (inactive); GI50 [29]: 40.6 µM (inactive); GI50 [30]: > 100 µM (inactive); GI50 [31]: > 100 µM (inactive); GI50 [32]: > 100 µM (inactive); GI50 [33]: > 100 µM (inactive); GI50 [34]: 90.8 µM (inactive); GI50 [35]: > 100 µM (inactive); GI50 [36]: > 100 µM (inactive); GI50 [37]: > 100 µM (inactive); GI50 [38]: > 100 µM (inactive); GI50 [39]: > 100 µM (inactive); GI50 [40]: > 100 µM (inactive); GI50 [41]: > 100 µM (inactive); GI50 [42]: > 100 µM (inactive); GI50 [43]: > 100 µM (inactive); GI50 [44]: > 100 µM (inactive); GI50 [45]: > 100 µM (inactive)

With CCOC(=O)c1sc2c(c1OC(=O)c1cccs1)c(=O)n(-c1ccccc1)c(=S)n2-c1ccccc1 as the compound, how does the GI50 [1] read?
Its GI50 is 15.8 µM (inactive).

What about the GI50 [2] of the same compound?
The GI50 was 18.3 µM (inactive).

And the GI50 [3]?
Its GI50 is 22.6 µM (inactive).

What about the GI50 [46] of the same compound?
Its GI50 is 23.7 µM (inactive).

What about the GI50 [4] of the same compound?
The GI50 was 36.9 µM (inactive).

What about the GI50 [5] of the same compound?
Its GI50 is 21.1 µM (inactive).

And the GI50 [47]?
Its GI50 is 25 µM (inactive).

And the GI50 [48]?
Its GI50 is 14.9 µM (inactive).

And the GI50 [6]?
The GI50 was 4.69 µM (inactive).

What about the GI50 [7] of the same compound?
The GI50 was 0.0151 µM (active).

What about the GI50 [8] of the same compound?
Its GI50 is 11.1 µM (inactive).

And the GI50 [9]?
The GI50 was 20.5 µM (inactive).

And the GI50 [10]?
Its GI50 is 14 µM.

And the GI50 [49]?
The GI50 was 15.7 µM (inactive).

And the GI50 [50]?
Its GI50 is 15.5 µM (inactive).

And the GI50 [11]?
Its GI50 is 11.7 µM (inactive).

What about the GI50 [12] of the same compound?
Its GI50 is 27.4 µM (inactive).

What about the GI50 [51] of the same compound?
Its GI50 is 12.9 µM (inactive).

What about the GI50 [13] of the same compound?
Its GI50 is 16.6 µM (inactive).

What about the GI50 [14] of the same compound?
Its GI50 is 11.8 µM (inactive).

And the GI50 [15]?
Its GI50 is 28.6 µM (inactive).

What about the GI50 [16] of the same compound?
The GI50 was 7.55 µM (inactive).

And the GI50 [17]?
Its GI50 is 10.6 µM (inactive).

What about the GI50 [18] of the same compound?
The GI50 was 17.3 µM (inactive).

What about the GI50 [19] of the same compound?
Its GI50 is 24.5 µM (inactive).

And the GI50 [20]?
The GI50 was 10.7 µM (inactive).

And the GI50 [21]?
The GI50 was 19.9 µM (inactive).

What about the GI50 [22] of the same compound?
The GI50 was 83.6 µM (inactive).

And the GI50 [23]?
Its GI50 is 5.15 µM (inactive).

What about the GI50 [24] of the same compound?
Its GI50 is 33.1 µM (inactive).

And the GI50 [52]?
The GI50 was 3.9 µM (inactive).

What about the GI50 [25] of the same compound?
The GI50 was 19.3 µM (inactive).

What about the GI50 [26] of the same compound?
Its GI50 is 11.5 µM (inactive).

What about the GI50 [27] of the same compound?
Its GI50 is 23.5 µM (inactive).

What about the GI50 [28] of the same compound?
The GI50 was 53.2 µM (inactive).

What about the GI50 [53] of the same compound?
The GI50 was 14.9 µM (inactive).

What about the GI50 [29] of the same compound?
Its GI50 is 24.3 µM (inactive).

What about the GI50 [30] of the same compound?
Its GI50 is 15.3 µM (inactive).

What about the GI50 [31] of the same compound?
Its GI50 is 0.175 µM (active).

What about the GI50 [32] of the same compound?
The GI50 was 3.63 µM (inactive).

And the GI50 [33]?
The GI50 was 12.3 µM (inactive).

And the GI50 [34]?
Its GI50 is 6.4 µM (inactive).

And the GI50 [35]?
The GI50 was 29.6 µM (inactive).

And the GI50 [36]?
Its GI50 is 5.3 µM (inactive).

And the GI50 [37]?
Its GI50 is 16.7 µM (inactive).

What about the GI50 [38] of the same compound?
Its GI50 is 30.5 µM (inactive).

What about the GI50 [39] of the same compound?
Its GI50 is 24.7 µM (inactive).

What about the GI50 [40] of the same compound?
Its GI50 is 18.2 µM (inactive).

And the GI50 [54]?
The GI50 was 13.5 µM (inactive).

What about the GI50 [41] of the same compound?
Its GI50 is 15.8 µM (inactive).

What about the GI50 [42] of the same compound?
The GI50 was 12.4 µM (inactive).

And the GI50 [55]?
The GI50 was 12.2 µM (inactive).

What about the GI50 [56] of the same compound?
Its GI50 is 20.5 µM (inactive).

And the GI50 [57]?
The GI50 was 12 µM (inactive).

What about the GI50 [44] of the same compound?
The GI50 was 18.2 µM (inactive).

And the GI50 [45]?
Its GI50 is 16.1 µM (inactive).

What about the GI50 [58] of the same compound?
Its GI50 is 12.2 µM (inactive).

What does the source list for Cc1ccc2c(O)cc(-c3ccc(Cl)s3)nc2n1?
GI50 [1]: 8.79 µM (inactive); GI50 [2]: 1.55 µM (inactive); GI50 [3]: 2.75 µM (inactive); GI50 [46]: 1.62 µM (inactive); GI50 [4]: 6.92 µM (inactive); GI50 [5]: 2.31 µM (inactive); GI50 [47]: 8.87 µM (inactive); GI50 [48]: 0.422 µM (active); GI50 [6]: 0.502 µM (active); GI50 [7]: 0.15 µM (active); GI50 [8]: 0.409 µM (active); GI50 [9]: 3.57 µM (inactive); GI50 [10]: 0.405 µM; GI50 [49]: 0.662 µM (active); GI50 [50]: 0.203 µM (active); GI50 [11]: 16.3 µM (inactive); GI50 [12]: 5.68 µM (inactive); GI50 [51]: 0.632 µM (active); GI50 [13]: 1.34 µM (inactive); GI50 [14]: 0.665 µM (active); GI50 [59]: 5.18 µM (inactive); GI50 [15]: 1.43 µM (inactive); GI50 [16]: 0.308 µM (active); GI50 [17]: 1.21 µM (inactive); GI50 [18]: 6.18 µM (inactive); GI50 [19]: > 58.1 µM (inactive); GI50 [20]: 0.488 µM (active); GI50 [21]: 0.728 µM (active); GI50 [22]: 1.4 µM (inactive); GI50 [23]: 0.471 µM (active); GI50 [24]: 3.24 µM (inactive); GI50 [52]: 1.39 µM (inactive); GI50 [25]: 0.407 µM (active); GI50 [26]: 0.223 µM (active); GI50 [27]: 1.04 µM (active); GI50 [28]: 0.697 µM (active); GI50 [53]: 5.89 µM (inactive); GI50 [29]: 2.76 µM (inactive); GI50 [30]: 0.643 µM (active); GI50 [31]: 0.245 µM (active); GI50 [32]: 0.564 µM (active); GI50 [33]: 1.14 µM (inactive); GI50 [34]: 4.7 µM (inactive); GI50 [35]: 4.1 µM (inactive); GI50 [36]: 0.552 µM (active); GI50 [37]: 0.538 µM (active); GI50 [38]: 0.136 µM (active); GI50 [39]: 1.1 µM (active); GI50 [40]: 1.83 µM (inactive); GI50 [54]: 0.391 µM (active); GI50 [41]: 0.889 µM (active); GI50 [42]: 0.516 µM (active); GI50 [55]: 0.564 µM (active); GI50 [56]: 0.916 µM (active); GI50 [57]: 1.57 µM (inactive); GI50 [44]: 1.44 µM (inactive); GI50 [45]: 0.488 µM (active); GI50 [58]: 0.855 µM (active)
